Legend:
Design in all cases: scale not given: the % may be the effect or the level left
[1] = target: Mitogen-activated protein kinase 9 (Homo sapiens) (UniProt P45984); assay: Inhibition of human JNK2-alpha2 assessed as enzyme activity at 1 uM using ATF2 as substrate preincubated for 20 mins followed by [gamma-33P]-ATP addition and measured after 120 mins by radiometric Hot-SpotSM Kinase assay relative to control
[2] = target: Serine/threonine-protein kinase MARK2 (Homo sapiens) (UniProt Q7KZI7); assay: Inhibition of human PAR-1Ba assessed as enzyme activity at 1 uM using KKKVSRSGLYRSPSMPENLNRPR as substrate preincubated for 20 mins followed by [gamma-33P]-ATP addition and measured after 120 mins by radiometric Hot-SpotSM Kinase assay relative to control
[3] = target: Mitogen-activated protein kinase kinase kinase 9 (Homo sapiens) (UniProt P80192); assay: Inhibition of human MLK1 assessed as enzyme activity at 1 uM using casein as substrate preincubated for 20 mins followed by [gamma-33P]-ATP addition and measured after 120 mins by radiometric Hot-SpotSM Kinase assay relative to control
[4] = target: T1, Ephrin type-B receptor 4 (Homo sapiens) (UniProt P54760); assay: Inhibition of human EPHB4 assessed as enzyme activity at 1 uM using poly[Glu:Tyr] (4:1) as substrate preincubated for 20 mins followed by [gamma-33P]-ATP addition and measured after 120 mins by radiometric Hot-SpotSM Kinase assay relative to control
T1 sequence (whole entry): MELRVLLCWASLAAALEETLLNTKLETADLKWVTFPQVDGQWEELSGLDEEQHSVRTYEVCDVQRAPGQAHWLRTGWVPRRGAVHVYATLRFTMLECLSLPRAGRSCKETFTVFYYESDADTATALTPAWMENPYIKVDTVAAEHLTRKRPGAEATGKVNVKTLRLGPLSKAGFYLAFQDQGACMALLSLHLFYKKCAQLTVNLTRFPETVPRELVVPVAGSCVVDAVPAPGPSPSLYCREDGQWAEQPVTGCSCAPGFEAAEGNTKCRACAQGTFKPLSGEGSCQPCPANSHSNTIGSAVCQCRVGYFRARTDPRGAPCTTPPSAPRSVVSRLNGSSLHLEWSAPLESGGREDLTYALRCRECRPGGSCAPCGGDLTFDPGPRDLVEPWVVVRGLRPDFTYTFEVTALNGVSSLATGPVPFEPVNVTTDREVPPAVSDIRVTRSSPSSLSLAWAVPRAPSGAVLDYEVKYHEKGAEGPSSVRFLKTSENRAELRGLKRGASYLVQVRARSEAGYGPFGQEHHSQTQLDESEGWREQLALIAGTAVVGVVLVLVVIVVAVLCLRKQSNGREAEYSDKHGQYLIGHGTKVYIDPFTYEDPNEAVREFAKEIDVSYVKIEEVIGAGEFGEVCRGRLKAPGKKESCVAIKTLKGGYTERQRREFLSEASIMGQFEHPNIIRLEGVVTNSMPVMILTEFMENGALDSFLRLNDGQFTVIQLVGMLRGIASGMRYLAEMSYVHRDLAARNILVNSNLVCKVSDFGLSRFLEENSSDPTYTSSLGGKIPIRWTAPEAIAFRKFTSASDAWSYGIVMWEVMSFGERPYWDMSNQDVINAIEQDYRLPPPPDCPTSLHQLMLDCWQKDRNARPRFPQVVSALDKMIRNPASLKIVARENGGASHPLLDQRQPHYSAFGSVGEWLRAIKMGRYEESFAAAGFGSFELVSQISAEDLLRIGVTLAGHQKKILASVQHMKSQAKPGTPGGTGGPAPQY

[5] = target: T2, Serine/threonine-protein kinase 4 (Homo sapiens) (UniProt Q13043); assay: Inhibition of human MST1 assessed as enzyme activity at 1 uM using KKSRGDYMTMQIG as substrate preincubated for 20 mins followed by [gamma-33P]-ATP addition and measured after 120 mins by radiometric Hot-SpotSM Kinase assay relative to control
T2 sequence (whole entry): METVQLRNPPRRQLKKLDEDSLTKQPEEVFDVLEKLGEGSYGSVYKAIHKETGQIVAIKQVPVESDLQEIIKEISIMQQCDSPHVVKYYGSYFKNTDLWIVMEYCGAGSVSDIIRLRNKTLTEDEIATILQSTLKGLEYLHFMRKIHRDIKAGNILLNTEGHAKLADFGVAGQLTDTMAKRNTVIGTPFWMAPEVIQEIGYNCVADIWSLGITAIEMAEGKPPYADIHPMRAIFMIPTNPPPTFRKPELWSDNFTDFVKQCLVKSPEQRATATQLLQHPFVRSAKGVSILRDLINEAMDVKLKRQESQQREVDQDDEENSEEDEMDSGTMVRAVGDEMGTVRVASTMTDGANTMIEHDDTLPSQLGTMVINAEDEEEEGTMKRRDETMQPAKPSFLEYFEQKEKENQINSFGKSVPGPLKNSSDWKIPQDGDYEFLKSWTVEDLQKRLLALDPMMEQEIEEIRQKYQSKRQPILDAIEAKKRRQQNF

[6] = target: Serine/threonine-protein kinase SIK2 (Homo sapiens) (UniProt Q9H0K1); assay: Inhibition of human SIK2 assessed as enzyme activity at 1 uM using AMARAASAAALARRR as substrate preincubated for 20 mins followed by [gamma-33P]-ATP addition and measured after 120 mins by radiometric Hot-SpotSM Kinase assay relative to control
[7] = target: T3, Testis-specific serine/threonine-protein kinase 2 (Homo sapiens) (UniProt Q96PF2); assay: Inhibition of human TSSK2 assessed as enzyme activity at 1 uM using KKKVSRSGLYRSPSMPENLNRPR as substrate preincubated for 20 mins followed by [gamma-33P]-ATP addition and measured after 120 mins by radiometric Hot-SpotSM Kinase assay relative to control
T3 sequence (whole entry): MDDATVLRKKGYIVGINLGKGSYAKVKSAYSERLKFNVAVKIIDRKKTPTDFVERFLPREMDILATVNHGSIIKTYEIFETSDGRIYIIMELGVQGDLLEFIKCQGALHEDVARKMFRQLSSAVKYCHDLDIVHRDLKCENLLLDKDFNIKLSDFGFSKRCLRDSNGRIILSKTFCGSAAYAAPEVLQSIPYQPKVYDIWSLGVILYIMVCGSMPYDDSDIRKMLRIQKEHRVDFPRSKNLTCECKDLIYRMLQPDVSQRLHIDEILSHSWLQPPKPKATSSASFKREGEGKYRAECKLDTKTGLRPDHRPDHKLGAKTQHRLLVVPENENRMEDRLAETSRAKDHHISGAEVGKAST

[8] = target: Calcium/calmodulin-dependent protein kinase kinase 2 (Homo sapiens) (UniProt Q96RR4); assay: Inhibition of human CAMKK2 assessed as enzyme activity at 1 uM using myelin basic protein as substrate preincubated for 20 mins followed by [gamma-33P]-ATP addition and measured after 120 mins by radiometric Hot-SpotSM Kinase assay relative to control
Calcium/calmodulin-dependent protein kinase kinase 2 (Homo sapiens), sequence (Q96RR4 2-588 limits assumed): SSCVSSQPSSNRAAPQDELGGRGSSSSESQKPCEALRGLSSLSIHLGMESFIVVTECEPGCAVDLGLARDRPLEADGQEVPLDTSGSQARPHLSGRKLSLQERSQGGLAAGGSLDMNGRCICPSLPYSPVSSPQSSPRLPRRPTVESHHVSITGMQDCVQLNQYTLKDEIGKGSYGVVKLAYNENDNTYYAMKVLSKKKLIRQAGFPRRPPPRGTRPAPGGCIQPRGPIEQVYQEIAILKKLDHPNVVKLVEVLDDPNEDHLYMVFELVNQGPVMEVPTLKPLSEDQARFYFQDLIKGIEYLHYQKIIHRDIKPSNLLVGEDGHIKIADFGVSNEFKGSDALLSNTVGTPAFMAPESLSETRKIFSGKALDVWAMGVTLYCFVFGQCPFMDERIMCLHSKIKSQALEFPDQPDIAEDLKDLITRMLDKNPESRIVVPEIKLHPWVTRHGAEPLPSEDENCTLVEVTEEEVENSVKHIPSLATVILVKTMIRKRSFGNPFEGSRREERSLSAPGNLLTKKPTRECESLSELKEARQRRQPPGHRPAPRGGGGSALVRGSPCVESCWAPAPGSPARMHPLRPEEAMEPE

Serine/threonine-protein kinase SIK2 (Homo sapiens), sequence (Q9H0K1 whole entry, looked up): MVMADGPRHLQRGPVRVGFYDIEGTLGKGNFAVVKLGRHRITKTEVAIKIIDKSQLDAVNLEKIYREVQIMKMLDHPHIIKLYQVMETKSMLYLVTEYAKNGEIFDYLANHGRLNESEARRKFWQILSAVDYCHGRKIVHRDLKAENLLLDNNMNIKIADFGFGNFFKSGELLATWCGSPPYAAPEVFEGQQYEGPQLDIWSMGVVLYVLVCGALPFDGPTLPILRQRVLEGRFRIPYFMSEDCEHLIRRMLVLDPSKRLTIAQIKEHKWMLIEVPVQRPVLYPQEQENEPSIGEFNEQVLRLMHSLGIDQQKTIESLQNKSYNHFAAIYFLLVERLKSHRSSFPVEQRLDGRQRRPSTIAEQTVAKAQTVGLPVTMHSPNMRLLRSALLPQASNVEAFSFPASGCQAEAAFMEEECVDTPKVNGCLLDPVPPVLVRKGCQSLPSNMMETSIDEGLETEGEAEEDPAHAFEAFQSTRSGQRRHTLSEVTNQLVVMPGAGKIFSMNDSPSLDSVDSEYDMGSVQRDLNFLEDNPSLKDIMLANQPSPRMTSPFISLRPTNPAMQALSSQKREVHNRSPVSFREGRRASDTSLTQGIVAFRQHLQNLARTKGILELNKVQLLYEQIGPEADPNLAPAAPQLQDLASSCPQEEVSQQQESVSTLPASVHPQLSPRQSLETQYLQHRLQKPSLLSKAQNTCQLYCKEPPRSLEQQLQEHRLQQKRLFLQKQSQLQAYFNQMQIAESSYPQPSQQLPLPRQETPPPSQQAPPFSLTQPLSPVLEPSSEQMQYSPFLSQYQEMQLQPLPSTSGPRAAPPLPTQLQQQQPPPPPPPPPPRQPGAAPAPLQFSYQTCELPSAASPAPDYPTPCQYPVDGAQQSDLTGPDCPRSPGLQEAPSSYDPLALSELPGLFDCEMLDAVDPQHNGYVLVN
Mitogen-activated protein kinase kinase kinase 9 (Homo sapiens), sequence (P80192 whole entry, looked up): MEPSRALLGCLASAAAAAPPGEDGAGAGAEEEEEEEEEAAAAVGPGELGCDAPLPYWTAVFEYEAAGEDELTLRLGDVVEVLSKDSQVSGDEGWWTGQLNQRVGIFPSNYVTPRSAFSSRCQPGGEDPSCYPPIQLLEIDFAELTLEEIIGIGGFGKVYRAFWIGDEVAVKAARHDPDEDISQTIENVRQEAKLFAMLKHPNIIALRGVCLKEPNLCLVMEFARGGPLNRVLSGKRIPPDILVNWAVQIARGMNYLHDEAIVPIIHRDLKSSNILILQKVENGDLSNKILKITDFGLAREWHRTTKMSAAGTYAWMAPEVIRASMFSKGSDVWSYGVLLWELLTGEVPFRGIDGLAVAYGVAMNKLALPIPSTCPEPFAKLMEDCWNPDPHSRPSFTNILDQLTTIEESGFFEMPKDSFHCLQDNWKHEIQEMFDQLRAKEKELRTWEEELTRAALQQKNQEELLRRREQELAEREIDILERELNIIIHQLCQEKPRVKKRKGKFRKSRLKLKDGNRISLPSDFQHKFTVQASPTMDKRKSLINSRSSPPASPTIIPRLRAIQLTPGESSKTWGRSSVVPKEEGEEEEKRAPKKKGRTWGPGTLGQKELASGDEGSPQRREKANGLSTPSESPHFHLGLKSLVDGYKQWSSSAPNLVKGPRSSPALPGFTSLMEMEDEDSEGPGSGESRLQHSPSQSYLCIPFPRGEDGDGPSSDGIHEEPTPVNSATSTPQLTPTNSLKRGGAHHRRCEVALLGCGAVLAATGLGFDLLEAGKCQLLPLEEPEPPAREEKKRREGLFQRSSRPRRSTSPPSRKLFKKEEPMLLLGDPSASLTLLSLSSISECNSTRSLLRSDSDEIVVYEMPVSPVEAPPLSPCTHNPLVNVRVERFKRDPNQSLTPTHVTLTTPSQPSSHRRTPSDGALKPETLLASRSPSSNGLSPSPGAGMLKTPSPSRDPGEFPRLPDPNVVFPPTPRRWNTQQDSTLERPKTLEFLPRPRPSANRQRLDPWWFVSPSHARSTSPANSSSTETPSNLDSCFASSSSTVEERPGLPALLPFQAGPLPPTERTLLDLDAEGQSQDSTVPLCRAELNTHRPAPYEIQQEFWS
Mitogen-activated protein kinase 9 (Homo sapiens), sequence (P45984 whole entry, looked up): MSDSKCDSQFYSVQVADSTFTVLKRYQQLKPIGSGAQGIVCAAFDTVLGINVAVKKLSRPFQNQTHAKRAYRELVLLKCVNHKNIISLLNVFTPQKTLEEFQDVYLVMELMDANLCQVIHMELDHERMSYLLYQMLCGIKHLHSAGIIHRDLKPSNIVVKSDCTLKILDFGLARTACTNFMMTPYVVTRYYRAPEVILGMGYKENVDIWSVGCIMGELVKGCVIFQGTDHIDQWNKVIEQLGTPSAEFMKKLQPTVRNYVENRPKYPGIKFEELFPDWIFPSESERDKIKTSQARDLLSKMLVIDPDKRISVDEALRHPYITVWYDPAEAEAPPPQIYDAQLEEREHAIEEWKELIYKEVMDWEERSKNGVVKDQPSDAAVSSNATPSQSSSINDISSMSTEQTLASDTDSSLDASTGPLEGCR
Serine/threonine-protein kinase MARK2 (Homo sapiens), sequence (Q7KZI7 whole entry): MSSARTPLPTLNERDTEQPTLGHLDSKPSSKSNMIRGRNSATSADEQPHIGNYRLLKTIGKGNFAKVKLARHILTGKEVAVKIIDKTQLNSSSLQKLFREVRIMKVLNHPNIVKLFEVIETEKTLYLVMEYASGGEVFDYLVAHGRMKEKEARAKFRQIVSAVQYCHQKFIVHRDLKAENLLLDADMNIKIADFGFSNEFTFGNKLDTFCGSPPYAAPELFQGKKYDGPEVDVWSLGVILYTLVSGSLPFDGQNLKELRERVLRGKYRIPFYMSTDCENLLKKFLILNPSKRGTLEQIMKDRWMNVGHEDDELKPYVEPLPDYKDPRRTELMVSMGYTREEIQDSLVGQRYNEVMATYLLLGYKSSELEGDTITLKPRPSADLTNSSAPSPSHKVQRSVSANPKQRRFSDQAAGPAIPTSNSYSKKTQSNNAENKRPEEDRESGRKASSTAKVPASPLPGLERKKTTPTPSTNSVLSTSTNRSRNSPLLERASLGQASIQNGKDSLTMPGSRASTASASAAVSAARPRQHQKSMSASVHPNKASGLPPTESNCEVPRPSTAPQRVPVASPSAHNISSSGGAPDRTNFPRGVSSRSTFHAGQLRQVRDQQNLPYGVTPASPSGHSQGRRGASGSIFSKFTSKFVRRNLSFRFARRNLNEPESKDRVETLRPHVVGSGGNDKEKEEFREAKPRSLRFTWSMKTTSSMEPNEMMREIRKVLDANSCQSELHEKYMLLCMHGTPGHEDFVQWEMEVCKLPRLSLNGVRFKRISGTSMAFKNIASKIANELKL

SMILES | Activity [1] [%] | Activity [2] [%] | Activity [3] [%] | Activity [4] [%] | Activity [5] [%] | Activity [6] [%] | Activity [7] [%] | Activity [8] [%]
C[C@H](Nc1ncnc2nc[nH]c12)c1cc2cccc(Cl)c2c(=O)n1-c1ccccc1 | 97.8 | 95.8 | 94 | 91.5 | 94.1 | 94 | 98 | 96.6
CC[C@H](Nc1ncnc2[nH]cnc12)c1nc2cccc(F)c2c(=O)n1-c1ccccc1 | 96.8 | 94.3 | 91.2 | 92.2 | 89.8 | 98.5 | 104 | 106
CC(C)Oc1ccc(-c2nn([C@@H](C)c3oc4ccc(F)cc4c(=O)c3-c3cccc(F)c3)c3ncnc(N)c23)cc1F [UMBRALISIB] | 97.3 | 99.7 | 97.6 | 89.7 | 95.1 | 95.4 | 100 | 98.5

— ChEMBL document CHEMBL5715954, “Silencing c-Myc translation as a therapeutic strategy through targeting PI3Kδ and CK1ε in hematological malignancies” (Blood, 2017)
